From PMC3617124 (Nature chemical biology, 2012) come the findings set out here.

One experiment deals with Bax^−/− and Bak^−/− MEFs. The experiment is described as follows: apoptotic response to standard proapoptotic stimuli. The experiment is classed as cell-based, mouse.
The next experiment has as its target BCL-XLΔC (Homo sapiens, UniProt Q07817). The experiment is described as follows: competitive FPA, BCL-XLΔC. The format is binding. The following applies: even at 50-μM dosing.
The target in another experiment is MCL-1ΔNΔC (Homo sapiens, UniProt Q07820). The experiment is described as follows: competitive FPA, MCL-1ΔNΔC. The settings on record: even at 50-μM dosing. The format is binding.
MCL-1ΔNΔC, sequence (Q07820 172-327, stated change not applied): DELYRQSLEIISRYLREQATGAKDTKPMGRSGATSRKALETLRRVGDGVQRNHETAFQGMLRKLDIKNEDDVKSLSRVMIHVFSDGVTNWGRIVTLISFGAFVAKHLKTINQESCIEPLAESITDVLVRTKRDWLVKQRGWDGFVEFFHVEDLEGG
Another experiment addresses T1, BFL-1/A1ΔC (Homo sapiens, UniProt Q16548).
T1 sequence (Q16548 1-153 limits assumed): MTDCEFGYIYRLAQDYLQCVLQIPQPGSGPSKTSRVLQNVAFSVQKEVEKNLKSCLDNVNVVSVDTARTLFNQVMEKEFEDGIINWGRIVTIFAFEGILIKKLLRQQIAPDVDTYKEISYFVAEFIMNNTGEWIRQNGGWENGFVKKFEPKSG
The experiment is described as follows: competitive FPA, BFL-1/A1ΔC. The settings on record: even at 50-μM dosing. The format is binding.

For the next experiment, the system named is BAKΔC. The experiment is described as follows: competitive FPA, BAKΔC. The experiment is classed as binding.
Experiment [1] concerns Bak^−/− MEFs. The experiment is described as follows: cell viability assay. The experiment is classed as cell-based, mouse. The settings on record: 24 h, CellTiter-Glo. A general note: ATP-based viability assays read luminescence as a measure of living cells.
The next experiment has as its system Bax^−/− MEFs. The experiment is described as follows: cell viability assay. The experiment is classed as cell-based, mouse. The following applies: 24 h, CellTiter-Glo.
A further experiment concerns Bax^−/− Bak^−/− MEFs. The experiment is described as follows: cell viability assay. The format is cell-based, mouse. The following applies: 24 h, CellTiter-Glo.
The test system of experiment [2] is Bak^−/− MEFs. The experiment is described as follows: mitochondrial cytochrome c release. The format is cell-based, mouse. The following applies: 15 h, supernatant and pellet western blot. In general terms: A western blot detects proteins with antibodies after separation by electrophoresis.

Structures are written as SMILES.

BCL-XLΔC, sequence (Q07817 1-212 limits assumed, stated change not applied): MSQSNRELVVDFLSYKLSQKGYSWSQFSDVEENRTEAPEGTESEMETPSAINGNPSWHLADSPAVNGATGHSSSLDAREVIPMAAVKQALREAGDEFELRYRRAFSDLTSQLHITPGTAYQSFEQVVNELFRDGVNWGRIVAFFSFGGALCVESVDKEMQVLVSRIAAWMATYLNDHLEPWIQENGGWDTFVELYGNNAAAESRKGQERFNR

In the case of `COc1cc([C@@H]2c3cc4c(cc3[C@@H](O[C@@H]3O[C@@H]5CO[C@@H](C)O[C@H]5[C@H](O)[C@H]3O)[C@H]3COC(=O)[C@H]23)OCO4)cc(OC)c1O` [etoposide], the “apoptotic response in Bax−/− versus Bak−/− MEFs” value with Bax^−/− and Bak^−/− MEFs is “equivalent apoptotic response”.

Turning to `CN[C@@H]1C[C@H]2O[C@@](C)([C@@H]1OC)n1c3ccccc3c3c4c(c5c6ccccc6n2c5c31)C(=O)NC4` [staurosporine], the “apoptotic response in Bax−/− versus Bak−/− MEFs” value in the experiment on Bax^−/− and Bak^−/− MEFs is on record as “equivalent apoptotic response”.

Consider `CCOc1ccccc1NN=C1C(=O)N(c2nc(-c3ccccc3)cs2)N=C1C` [BAM7, 4-(2-(2-ethoxyphenyl) hydrazono)-3-methyl-1-(4-phenylthiazol-2-yl)-1H-pyrazol-5(4H)-one], for which the “competitive binding interaction with BCL-XLΔC” value on BCL-XLΔC is recorded as “little to no”. In addition, the “competitive binding interaction with MCL-1ΔNΔC” value at MCL-1ΔNΔC is given as “little to no”. For the same compound, the “competitive binding interaction with BFL-1/A1ΔC” value on BFL-1/A1ΔC is recorded as “little to no”. Further, the “competitive binding interaction with BAKΔC” value with BAKΔC (even at 50-μM dosing) is “little to no”. For the same compound, the “viability of Bak−/− MEFs” value in the experiment with Bak^−/− MEFs [1] is “dose- and time-responsively impaired the viability”. The “viability of Bax−/− MEFs” value in the experiment with Bax^−/− MEFs was “no effect”. Moreover, the “viability of Bax−/− Bak−/− MEFs” value in the experiment on Bax^−/− Bak^−/− MEFs is given as “did not affect the viability”. In the experiment on Bak^−/− MEFs [2], the “mitochondrial cytochrome c release” value was “dose-responsive mitochondrial cytochrome c release”.

Regarding `CC[C@H](C)[C@H](NC(C)=O)C(=O)N[C@@H](Cc1c[nH]c2ccccc12)C(=O)N[C@H](C(=O)N[C@@H](C)C(=O)N[C@@H](CCC(N)=O)C(=O)N[C@@H](CCC(=O)O)C(=O)N[C@@H](CC(C)C)C(=O)N[C@@H](CCCNC(=N)N)C(=O)N[C@@]1(C)CCCC=CCCC[C@@](C)(C(=O)N[C@@H](Cc2ccccc2)C(=O)N[C@@H](CC(N)=O)C(=O)N[C@@H](C)C(=O)N[C@@H](Cc2ccc(O)cc2)C(=O)N[C@@H](Cc2ccc(O)cc2)C(=O)N[C@@H](C)C(=O)N[C@@H](CCCNC(=N)N)C(=O)N[C@@H](CCCNC(=N)N)C(N)=O)NC(=O)[C@H](CC(=O)O)NC(=O)CNC(=O)[C@H]([C@@H](C)CC)NC1=O)[C@@H](C)CC` [BIM SAHB, reference compound], the IC50 (as a rule, the concentration at which inhibition is half-maximal) with BAKΔC (read-out: IC50, competition with FITC–BIM SAHB for BAKΔC, competitive FPA) came out at 827 nM.
